Experimental data reported in EP3782997A1, “FUSED PYRIMIDINE COMPOUNDS AND PHARMACEUTICAL COMPOSITIONS THEREOF FOR THE TREATMENT OF FIBROTIC DISEASES” (Galapagos N.V., priority 2019, dated 2021).

target: hENPP2 (Homo sapiens, UniProt Q13822); assay: Human ENPP2 (hENPP2) biochemical assay using LPC as substrate; conditions: 150 µM LPC (palmitoyl 16:0), 37°C for 30 min
Method in brief: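 IC50 came from compound series (top 50 µM, 1/3 steps) incubated 30 min at 37°C with 1 or 3 µg/mL final enzyme and palmitoyl LPC added at 150 µM, pH 8.5 Tris buffer with Ca2+. Choline output measured as quinoneimine dye at 555 nm via coupled oxidase/HRP/TOOS detection.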

IC50	Compound
100 to 500 nM	COc1cc(Nc2ncc3c(n2)CN(C2CCN(C(=O)c4ccc5[nH]nnc5c4)CC2)C3)cc(OC)c1 [compound 27, 1H-benzotriazol-5-yl-[4-[2-(3,5-dimethoxyanilino)-5,7-dihydropyrrolo[3,4-d]pyrimidin-6-yl]-1-piperidyl]methanone]
0.01 to 100 nM	Cc1cc(Nc2ncc3c(n2)CN(C2CN(C(=O)c4ccc5[nH]c(=O)oc5c4)C2)C3)cc(C(F)(F)F)c1 [compound 28, 6-[3-[2-[3-methyl-5-(trifluoromethyl)anilino]-5,7-dihydropyrrolo[3,4-d]pyrimidin-6-yl]azetidine-1-carbonyl]-3H-1,3-benzoxazol-2-one]
0.01 to 100 nM	Cc1cc(Nc2ncc3c(n2)CN(C2CN(C(=O)c4ccc5nn[nH]c5c4)C2)C3)cc(C(F)(F)F)c1 [compound 29, 3H-benzotriazol-5-yl-[3-[2-[3-methyl-5-(trifluoromethyl)anilino]-5,7-dihydropyrrolo[3,4-d]pyrimidin-6-yl]azetidin-1-yl]methanone]
0.01 to 100 nM	O=C(c1ccc2[nH]nnc2c1)N1CC(N2Cc3cnc(Nc4ccc(C(F)(F)F)cc4)nc3C2)C1 [compound 30, 1H-benzotriazol-5-yl-[3-[2-[4-(trifluoromethyl)anilino]-5,7-dihydropyrrolo[3,4-d]pyrimidin-6-yl]azetidin-1-yl]methanone]
0.01 to 100 nM	COc1cc(Nc2ncc3c(n2)CN(C2CN(C(=O)c4ccc5[nH]nnc5c4)C2)C3)cc(OC)c1 [compound 31, 1H-benzotriazol-5-yl-[3-[2-(3,5-dimethoxyanilino)-5,7-dihydropyrrolo[3,4-d]pyrimidin-6-yl]azetidin-1-yl]methanone]
> 1000 nM	Cc1cc(C)cc(Nc2ncc3c(n2)CN(C2CN(C(=O)c4cc[nH]c(=O)c4)C2)C3)c1 [compound 32, 4-[3-[2-(3,5-dimethylanilino)-5,7-dihydropyrrolo[3,4-d]pyrimidin-6-yl]azetidine-1-carbonyl]-1H-pyridin-2-one]
> 1000 nM	Cc1cc(C)cc(Nc2ncc3c(n2)CN(C2CCCN(C(=O)c4ccc5[nH]nnc5c4)C2)C3)c1 (stereo not shown) [compound 33, 1H-benzotriazol-5-yl-[3-[2-(3,5-dimethylanilino)-5,7-dihydropyrrolo[3,4-d]pyrimidin-6-yl]-1-piperidyl]methanone]
0.01 to 100 nM	Cc1cc(C)cc(Nc2ncc3c(n2)CN(C2CCN(C(=O)c4ccc5[nH]c(=O)oc5c4)C(C)C2)C3)c1 (stereo not shown) [compound 35, 6-[4-[2-(3,5-dimethylanilino)-5,7-dihydropyrrolo[3,4-d]pyrimidin-6-yl]-2-methyl-piperidine-1-carbonyl]-3H-1,3-benzoxazol-2-one]
0.01 to 100 nM	Cc1cc(C)cc(Nc2ncc3c(n2)CN(C2CCN(C(=O)c4ccc5[nH]nnc5c4)CC2(F)F)C3)c1 (stereo not shown) [compound 37, 1H-benzotriazol-5-yl-[4-[2-(3,5-dimethylanilino)-5,7-dihydropyrrolo[3,4-d]pyrimidin-6-yl]-3,3-difluoro-1-piperidyl]methanone]
100 to 500 nM	Cc1cc(C)cc(Nc2ncc3c(n2)CN(C2CN(C(=O)c4ccc(S(N)(=O)=O)cc4)C2)C3)c1 [compound 38, 4-[3-[2-(3,5-dimethylanilino)-5,7-dihydropyrrolo[3,4-d]pyrimidin-6-yl]azetidine-1-carbonyl]benzenesulfonamide]
> 1000 nM	Cc1cc(C)cc(Nc2ncc3c(n2)CN(C2CCCN(C(=O)c4ccc5[nH]c(=O)oc5c4)C2)C3)c1 (stereo not shown) [compound 39, 6-[3-[2-(3,5-dimethylanilino)-5,7-dihydropyrrolo[3,4-d]pyrimidin-6-yl]piperidine-1-carbonyl]-3H-1,3-benzoxazol-2-one]
0.01 to 100 nM	Cc1cc(C)cc(Nc2ncc3c(n2)CN(C2CCN(C(=O)c4ccc5[nH]nnc5c4)CC2F)C3)c1 (stereo not shown) [compound 40, 1H-benzotriazol-5-yl-[4-[2-(3,5-dimethylanilino)-5,7-dihydropyrrolo[3,4-d]pyrimidin-6-yl]-3-fluoro-1-piperidyl]methanone]
500 to 1000 nM	Cc1cc(C)cc(Nc2ncc3c(n2)CN(C2CC4(C2)CN(C(=O)c2ccc5[nH]nnc5c2)C4)C3)c1 [compound 41, 1H-benzotriazol-5-yl-[6-[2-(3,5-dimethylanilino)-5,7-dihydropyrrolo[3,4-d]pyrimidin-6-yl]-2-azaspiro[3.3]heptan-2-yl]methanone]
100 to 500 nM	COc1cc(Nc2ncc3c(n2)CN(C2CCN(C(=O)c4ccc5[nH]nnc5c4)C2)C3)cc(OC)c1 (stereo not shown) [compound 42, 1H-benzotriazol-5-yl-[3-[2-(3,5-dimethoxyanilino)-5,7-dihydropyrrolo[3,4-d]pyrimidin-6-yl]pyrrolidin-1-yl]methanone]
500 to 1000 nM	Cc1cncc(Nc2ncc3c(n2)CN(C2CN(C(=O)c4ccc5[nH]nnc5c4)C2)C3)c1 [compound 43, 1H-benzotriazol-5-yl-[3-[2-[(5-methyl-3-pyridyl)amino]-5,7-dihydropyrrolo[3,4-d]pyrimidin-6-yl]azetidin-1-yl]methanone]
> 1000 nM	Cc1cncc(Nc2ncc3c(n2)CN(C2CCN(C(=O)c4ccc5[nH]nnc5c4)C2)C3)c1 (stereo not shown) [compound 44, 1H-benzotriazol-5-yl-[3-[2-[(5-methyl-3-pyridyl)amino]-5,7-dihydropyrrolo[3,4-d]pyrimidin-6-yl]pyrrolidin-1-yl]methanone]

IC50	Compound
> 1000 nM	Cc1cncc(Nc2ncc3c(n2)CN(C2CCN(C(=O)c4ccc(S(N)(=O)=O)cc4)C2)C3)c1 (stereo not shown) [compound 45, 4-[3-[2-[(5-methyl-3-pyridyl)amino]-5,7-dihydropyrrolo[3,4-d]pyrimidin-6-yl]pyrrolidine-1-carbonyl]benzenesulfonamide]
> 1000 nM	Cn1nc(C(C)(C)C)cc1Nc1ncc2c(n1)CN(C1CN(C(=O)c3ccc4[nH]nnc4c3)C1)C2 [compound 46, 1H-benzotriazol-5-yl-[3-[2-[(5-tert-butyl-2-methyl-pyrazol-3-yl)amino]-5,7-dihydropyrrolo[3,4-d]pyrimidin-6-yl]azetidin-1-yl]methanone]
> 1000 nM	Cc1cncc(Nc2ncc3c(n2)CN(C2CCN(C(=O)c4ccc(S(N)(=O)=O)cc4)CC2)C3)c1 [compound 47, 4-[4-[2-[(5-methyl-3-pyridyl)amino]-5,7-dihydropyrrolo[3,4-d]pyrimidin-6-yl]piperidine-1-carbonyl]benzenesulfonamide]
> 1000 nM	Cc1cncc(Nc2ncc3c(n2)CN(C2CN(C(=O)c4ccc(S(N)(=O)=O)cc4)C2)C3)c1 [compound 48, 4-[3-[2-[(5-methyl-3-pyridyl)amino]-5,7-dihydropyrrolo[3,4-d]pyrimidin-6-yl]azetidine-1-carbonyl]benzenesulfonamide]
500 to 1000 nM	Cc1cncc(Nc2ncc3c(n2)CN(C2CCN(C(=O)c4ccc5[nH]nnc5c4)CC2)C3)c1 [compound 49, 1H-benzotriazol-5-yl-[4-[2-[(5-methyl-3-pyridyl)amino]-5,7-dihydropyrrolo[3,4-d]pyrimidin-6-yl]-1-piperidyl]methanone]
> 1000 nM	Cn1nc(C(C)(C)C)cc1Nc1ncc2c(n1)CN(C1CCN(C(=O)c3ccc4[nH]nnc4c3)CC1)C2 [compound 50, 1H-benzotriazol-5-yl-[4-[2-[(5-tert-butyl-2-methyl-pyrazol-3-yl)amino]-5,7-dihydropyrrolo[3,4-d]pyrimidin-6-yl]-1-piperidyl]methanone]
500 to 1000 nM	Cc1cc(C)nc(Nc2ncc3c(n2)CN(C2CN(C(=O)c4ccc5[nH]nnc5c4)C2)C3)c1 [compound 51, 1H-benzotriazol-5-yl-[3-[2-[(4,6-dimethyl-2-pyridyl)amino]-5,7-dihydropyrrolo[3,4-d]pyrimidin-6-yl]azetidin-1-yl]methanone]
100 to 500 nM	Cc1cc(C)nc(Nc2ncc3c(n2)CN(C2CN(C(=O)c4ccc5[nH]c(=O)oc5c4)C2)C3)c1 [compound 52, 6-[3-[2-[(4,6-dimethyl-2-pyridyl)amino]-5,7-dihydropyrrolo[3,4-d]pyrimidin-6-yl]azetidine-1-carbonyl]-3H-1,3-benzoxazol-2-one]
100 to 500 nM	O=C(c1ccc2[nH]nnc2c1)N1CC(N2Cc3cnc(Nc4cc(F)cc(F)c4)nc3C2)C1 [compound 53, 1H-benzotriazol-5-yl-[3-[2-(3,5-difluoroanilino)-5,7-dihydropyrrolo[3,4-d]pyrimidin-6-yl]azetidin-1-yl]methanone]
100 to 500 nM	O=C(c1ccc2[nH]nnc2c1)N1CCC(N2Cc3cnc(Nc4cc(F)cc(F)c4)nc3C2)CC1 [compound 54, 1H-benzotriazol-5-yl-[4-[2-(3,5-difluoroanilino)-5,7-dihydropyrrolo[3,4-d]pyrimidin-6-yl]-1-piperidyl]methanone]
100 to 500 nM	O=C(c1ccc2[nH]c(=O)oc2c1)N1CCC(N2Cc3cnc(Nc4cc(F)cc(F)c4)nc3C2)CC1 [compound 55, 6-[4-[2-(3,5-difluoroanilino)-5,7-dihydropyrrolo[3,4-d]pyrimidin-6-yl]piperidine-1-carbonyl]-3H-1,3-benzoxazol-2-one]
> 1000 nM	Cc1cc(C)nc(Nc2ncc3c(n2)CN(C2CCN(C(=O)c4ccc5nn[nH]c5c4)CC2)C3)c1 [compound 56, 3H-benzotriazol-5-yl-[4-[2-[(4,6-dimethyl-2-pyridyl)amino]-5,7-dihydropyrrolo [3,4-d]pyrimidin-6-yl]-1-piperidyl]methanone]
0.01 to 100 nM	O=C(c1ccc2[nH]c(=O)oc2c1)N1CC(N2Cc3cnc(Nc4cc(F)cc(F)c4)nc3C2)C1 [compound 57, 6-[3-[2-(3,5-difluoroanilino)-5,7-dihydropyrrolo[3,4-d]pyrimidin-6-yl]azetidine-1-carbonyl]-3H-1,3-benzoxazol-2-one]
0.01 to 100 nM	N#Cc1ccc(Nc2ncc3c(n2)CN(C2CN(C(=O)c4ccc5[nH]nnc5c4)C2)C3)cc1 [compound 58, 4-[[6-[1-(1H-benzotriazole-5-carbonyl)azetidin-3-yl]-5,7-dihydropyrrolo[3,4-d]pyrimidin-2-yl]amino]benzonitrile]
0.01 to 100 nM	N#Cc1ccc(Nc2ncc3c(n2)CN(C2CCN(C(=O)c4ccc5[nH]nnc5c4)CC2)C3)cc1 [compound 59, 4-[[6-[1-(1H-benzotriazole-5-carbonyl)-4-piperidyl]-5,7-dihydropyrrolo[3,4-d]pyrimidin-2-yl]amino]benzonitrile]
